The conditions of data set [1]: Crystal; DSC.
Data set [2] is described as follows: Molar enthalpy of transition or fusion. To be noted: Crystal; DSC.

The values that follow come from the NIST ThermoML archive (doi:10.1021/acs.jced.8b00292).

The structures appear in SMILES notation. ± gives the expanded uncertainty stated by the source.

For `Nc1nc(Cl)cc(Cl)n1` [2-amino-4,6-dichloropyrimidine], the Triple point temperature in data set [1] is 496.42 ± 1.2 K. The “Molar enthalpy of transition or fusion” value in data set [2] was determined as 19.5 ± 0.9 kJ/mol.
